US5133908A, “Process for the preparation of dispersible colloidal systems of a substance in the form of nanoparticles” (Centre National de la Recherche Scientifique (CNRS), priority 1986, dated 1992)

Key:
[1] = tested on: human serum albumin (HSA) nanoparticles; assay: level of binding of active principle to HSA nanoparticles, ultracentrifugation; type: physicochemical; conditions: for level of binding of the sodium salicylate to the nanoparticles: of the amount used
Procedure: (§1) Increasing amounts (from 0.25 g to 2.50 g) of sodium salicylate are added to nanoparticles prepared according to example 1 (HSA) or according to example 5 (BSA). The level of binding of the sodium salicylate to the nanoparticles, measured after ultracentrifugation, is 60% of the amount used, irrespective of the amount of active principle added.
(§2) The procedure uses as in example 1 (1 g of HSA) or of example 5 (1 g of BSA), but carried out in the presence of 0.50 g of sodium salicylate dissolved in phase 1. The mean size of the nanoparticles is 200 nm with a mean dispersion index of 0.5. The level of binding of the sodium salicylate to the nanoparticles, measured after ultracentrifugation, is 60% of the amount used.
(§3) 50 mg of doxorubicin hydrochloride are added to nanoparticles prepared according to example 1 (HSA) or according to example 5 (BSA). The level of binding of doxorubicin to the nanoparticles, measured after ultracentrifugation, is 90% of the quantity used.

[2] = tested on: bovine serum albumin (BSA) nanoparticles; assay: level of binding of active principle to BSA nanoparticles, ultracentrifugation; type: physicochemical; conditions: for level of binding of the sodium salicylate to the nanoparticles: of the amount used
Procedure: as §1, §2, §3

Row | Structure (SMILES) | level of binding of doxorubicin to the nanoparticles ([1]; HSA nanoparticles, of the quantity used, 50 mg doxorubicin hydrochloride added) [%] | level of binding of doxorubicin to the nanoparticles ([2]; BSA nanoparticles, of the quantity used, 50 mg doxorubicin hydrochloride added) [%] | level of binding of the sodium salicylate to the nanoparticles ([1]; HSA nanoparticles, 0.25 g to 2.50 g added to formed nanoparticles, irrespective of amount) [%] | level of binding of the sodium salicylate to the nanoparticles ([1]; HSA, 0.50 g dissolved in phase 1) [%] | level of binding of the sodium salicylate to the nanoparticles ([2]; BSA nanoparticles, 0.25 g to 2.50 g added to formed nanoparticles, irrespective of amount) [%] | level of binding of the sodium salicylate to the nanoparticles ([2]; BSA, 0.50 g dissolved in phase 1) [%]
1 | COc1cccc2c1C(=O)c1c(O)c3c(c(O)c1C2=O)C[C@@](O)(C(=O)CO)C[C@@H]3O[C@H]1C[C@H](N)[C@H](O)[C@H](C)O1 [doxorubicin] | 90 | 90 | – | – | – | –
2 | O=C([O-])c1ccccc1O.[Na+] [sodium salicylate] | – | – | 60 | 60 | 60 | 60
